# ChEMBL document CHEMBL5584294, “Adpressins A-G: Oligophenalenone Dimers from Talaromyces adpressus” (J Nat Prod, 2024)
# Experiments:
# B-cell line = experiment: Immunosuppressive activity in BALB/c mouse B-lymphocytes assessed as inhibition of LPS-induced cell proliferation pretreated with LPS for 24 hrs followed by compound addition and measured after 48 hrs by CCK-8 assay; format: functional, cell-based
# T-cell [1] = experiment: Immunosuppressive activity in BALB/c mouse T-lymphocytes assessed as inhibition of ConA-induced cell proliferation pretreated with Concanavalin A for 24 hrs followed by compound addition and measured after 48 hrs by CCK-8 assay; format: functional, cell-based
# T-cell [2] = experiment: (§1) Immunosuppressive activity in BALB/c mouse T-lymphocytes assessed as reduction in ConA-induced CD4 subpopulation by measuring CD3negativeCD4negative cells at 5 uM pretreated with Concanavalin A for 24 hrs followed by compound addition and measured after 48 hrs by flow cytometry analysis (reference value: 0%); format: functional; parameters: scale not given: the % may be the effect or the level left
# T-cell [3] = experiment: as §1, with “CD3positiveCD4negative” for “CD3negativeCD4negative”, “12.2%)” for “0%)”; format: functional; parameters: scale not given: the % may be the effect or the level left
# T-cell [4] = experiment: as §1, with “CD3positiveCD4positive” for “CD3negativeCD4negative”, “87.8%)” for “0%)”; format: functional; parameters: scale not given: the % may be the effect or the level left
# T-cell [5] = experiment: as §1, with “CD3negativeCD4positive” for “CD3negativeCD4negative”; format: functional; parameters: scale not given: the % may be the effect or the level left
# T-cell [6] = experiment: as §1, with “10” for “5”; format: functional; parameters: scale not given: the % may be the effect or the level left
# T-cell [7] = experiment: as §1, with “CD3positiveCD4negative” for “CD3negativeCD4negative”, “10” for “5”, “12.2%)” for “0%)”; format: functional; parameters: scale not given: the % may be the effect or the level left
# T-cell [8] = experiment: as §1, with “CD3positiveCD4positive” for “CD3negativeCD4negative”, “10” for “5”, “87.8%)” for “0%)”; format: functional; parameters: scale not given: the % may be the effect or the level left
# T-cell [9] = experiment: as §1, with “CD3negativeCD4positive” for “CD3negativeCD4negative”, “10” for “5”; format: functional; parameters: scale not given: the % may be the effect or the level left
# T-cell [10] = experiment: as §1, with “CD8” for “CD4”, “CD3negativeCD8negative” for “CD3negativeCD4negative”; format: functional; parameters: scale not given: the % may be the effect or the level left
# T-cell [11] = experiment: as §1, with “CD8” for “CD4”, “CD3positiveCD8negative” for “CD3negativeCD4negative”, “70.9%)” for “0%)”; format: functional; parameters: scale not given: the % may be the effect or the level left
# T-cell [12] = experiment: as §1, with “CD8” for “CD4”, “CD3positiveCD8positive” for “CD3negativeCD4negative”, “29.1%)” for “0%)”; format: functional; parameters: scale not given: the % may be the effect or the level left
# T-cell [13] = experiment: as §1, with “CD8” for “CD4”, “CD3negativeCD8positive” for “CD3negativeCD4negative”; format: functional; parameters: scale not given: the % may be the effect or the level left
# T-cell [14] = experiment: as §1, with “CD8” for “CD4”, “CD3negativeCD8negative” for “CD3negativeCD4negative”, “10” for “5”; format: functional; parameters: scale not given: the % may be the effect or the level left
# T-cell [15] = experiment: as §1, with “CD8” for “CD4”, “CD3positiveCD8negative” for “CD3negativeCD4negative”, “10” for “5”, “70.9%)” for “0%)”; format: functional; parameters: scale not given: the % may be the effect or the level left
# T-cell [16] = experiment: as §1, with “CD8” for “CD4”, “CD3positiveCD8positive” for “CD3negativeCD4negative”, “10” for “5”, “29.1%)” for “0%)”; format: functional; parameters: scale not given: the % may be the effect or the level left
# T-cell [17] = experiment: as §1, with “CD8” for “CD4”, “CD3negativeCD8positive” for “CD3negativeCD4negative”, “10” for “5”; format: functional; parameters: scale not given: the % may be the effect or the level left
# T-cell [18] = experiment: (§2) Immunosuppressive activity in ConA-induced BALB/c mouse T-lymphocytes assessed as Treg cell subsets by measuring CD25negativeFOXP3negative cells at 5 uM pretreated with Concanavalin A for 24 hrs followed by compound addition and measured after 48 hrs by flow cytometry analysis (reference value: 27.2%); format: functional
# T-cell [19] = experiment: as §2, with “CD25positiveFOXP3negative” for “CD25negativeFOXP3negative”, “66.9%)” for “27.2%)”; format: functional
# T-cell [20] = experiment: as §2, with “CD25positiveFOXP3positive” for “CD25negativeFOXP3negative”, “5.7%)” for “27.2%)”; format: functional
# T-cell [21] = experiment: as §2, with “CD25negativeFOXP3positive” for “CD25negativeFOXP3negative”, “0.2%)” for “27.2%)”; format: functional
# T-cell [22] = experiment: as §2, with “at 10” for “at 5”; format: functional
# T-cell [23] = experiment: as §2, with “CD25positiveFOXP3negative” for “CD25negativeFOXP3negative”, “10” for “5”, “66.9%)” for “27.2%)”; format: functional
# T-cell [24] = experiment: as §2, with “CD25positiveFOXP3positive” for “CD25negativeFOXP3negative”, “10” for “5”, “5.7%)” for “27.2%)”; format: functional
# T-cell [25] = experiment: as §2, with “CD25negativeFOXP3positive” for “CD25negativeFOXP3negative”, “10” for “5”, “0.2%)” for “27.2%)”; format: functional
smiles,measurement,setting,value
CO[C@@H]1N(CCO)C(=O)c2c(O)cc(C)c3c2[C@]1(O)C(=O)C1=C3[C@H]2C(=O)c3c(C)cc(O)c4c3[C@]1(COC4=O)[C@H]2O,IC50,B-cell line,2.1 µM
same,IC50,T-cell [1],9.3 µM
same,Activity,T-cell [2],0%
same,Activity,T-cell [3],23.4%
same,Activity,T-cell [4],76.6%
same,Activity,T-cell [5],0%
same,Activity,T-cell [6],0%
same,Activity,T-cell [7],24.1%
same,Activity,T-cell [8],75.9%
same,Activity,T-cell [9],0%
same,Activity,T-cell [10],0%
same,Activity,T-cell [11],60.5%
same,Activity,T-cell [12],39.5%
same,Activity,T-cell [13],0%
same,Activity,T-cell [14],0%
same,Activity,T-cell [15],61.2%
same,Activity,T-cell [16],38.8%
same,Activity,T-cell [17],0%
same,Activity,T-cell [18],18.1%
same,Activity,T-cell [19],77.2%
same,Activity,T-cell [20],4.6%
same,Activity,T-cell [21],0.1%
same,Activity,T-cell [22],21.3%
same,Activity,T-cell [23],76%
same,Activity,T-cell [24],2.5%
same,Activity,T-cell [25],0.3%
Cc1cc(O)c2c3c1C1=C(C(=O)C3C3CCCN3C2=O)[C@]23COC(=O)c4c(O)cc(C)c(c42)C(=O)[C@H]1[C@@H]3O (some centres undefined),IC50,B-cell line,> 40 µM
same,IC50,T-cell [1],> 40 µM
CC(=O)O[C@H]1[C@@H]2C(=O)c3c(C)cc(O)c4c3[C@@]1(COC4=O)c1c(O)cc3cc(O)cc(C)c3c12,IC50,B-cell line,> 40 µM
same,IC50,T-cell [1],> 40 µM
COC(=O)C[C@H]1OC(=O)c2c(O)cc(C)c3c4c(c(O)c1c23)[C@]12COC(=O)c3c(O)cc(C)c(c31)C(=O)[C@H]4[C@@H]2O,IC50,B-cell line,> 40 µM
same,IC50,T-cell [1],> 40 µM
Cc1cc(O)c2c3c1C(=O)[C@@H]1c4c(c(O)c5c6c(c(O)cc(C)c46)C(=O)OC5)[C@@]3(COC2=O)[C@H]1O,IC50,B-cell line,> 40 µM
same,IC50,T-cell [1],> 40 µM
COC(=O)C[C@@H]1OC(=O)c2c(O)cc(C)c3c4c(c(O)c1c23)[C@]12COC(=O)c3c(O)cc(C)c(c31)C(=O)[C@H]4[C@@H]2O,IC50,B-cell line,> 40 µM
same,IC50,T-cell [1],> 40 µM
CC(=O)O[C@H]1[C@@H]2C(=O)c3c(C)cc(O)c4c3[C@@]1(COC4=O)C1=C2c2c(C)cc(O)c3c2C(C1=O)C1CCCN1C3=O (some centres undefined),IC50,B-cell line,> 40 µM
same,IC50,T-cell [1],> 40 µM
CC1(C)C2CCC1(CS(=O)(=O)O)C(=O)C2 (centres undefined),IC50,B-cell line,< 0.04 µM
same,IC50,T-cell [1],< 0.04 µM
COC(=O)C[C@@H]1OC(=O)c2c(O)cc(C)c3c4c(c(O)c1c23)[C@]12COC(=O)c3c(O)cc(C)c(c31)C(=O)[C@H]4[C@@H]2OC(C)=O,IC50,B-cell line,8.6 µM
same,IC50,T-cell [1],12.8 µM
CC(=O)O[C@H]1[C@@H]2C(=O)c3c(C)cc(O)c4c3[C@@]1(COC4=O)C1=C2c2c(C)cc(O)c3c2[C@@](O)(COC3=O)C1=O,IC50,B-cell line,> 40 µM
same,IC50,T-cell [1],> 40 µM
